According to ChEMBL document CHEMBL1134775, “Structure-based design: potent inhibitors of human brain memapsin 2 (beta-secretase)” (J Med Chem, 2001):

Target: Beta-secretase 1 (Homo sapiens, UniProt P56817)
Test: Binding affinity for human brain memapsin 2

Sequence of Beta-secretase 1 (P56817 whole entry): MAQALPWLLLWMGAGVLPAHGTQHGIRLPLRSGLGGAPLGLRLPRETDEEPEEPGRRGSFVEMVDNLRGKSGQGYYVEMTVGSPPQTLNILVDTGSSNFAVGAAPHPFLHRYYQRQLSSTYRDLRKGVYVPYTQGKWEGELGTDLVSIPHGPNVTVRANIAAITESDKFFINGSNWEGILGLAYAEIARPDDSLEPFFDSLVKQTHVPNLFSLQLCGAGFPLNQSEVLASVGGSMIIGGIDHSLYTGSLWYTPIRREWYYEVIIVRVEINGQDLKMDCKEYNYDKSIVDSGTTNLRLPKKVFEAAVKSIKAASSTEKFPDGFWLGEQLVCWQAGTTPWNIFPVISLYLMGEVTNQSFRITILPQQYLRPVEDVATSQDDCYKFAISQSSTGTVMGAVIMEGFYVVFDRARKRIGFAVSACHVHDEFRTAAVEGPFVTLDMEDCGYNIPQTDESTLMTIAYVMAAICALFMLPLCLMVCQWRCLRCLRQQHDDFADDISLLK

Ki [nM] | SMILES
1130 | CC(C)C[C@H](NC(=O)[C@H](CS(C)(=O)=O)NC(=O)OC(C)(C)C)[C@@H](O)C[C@@H](C)C(=O)N[C@H](C(=O)NCc1ccccc1)C(C)C
2.5 | CSCC[C@H](NC(=O)[C@@H](NC(=O)OC(C)(C)C)C(C)C)C(=O)N[C@@H](CC(C)C)[C@@H](O)C[C@@H](C)C(=O)N[C@H](C(=O)NCc1ccccc1)C(C)C
36 | CC(C)C[C@H](NC(=O)[C@H](CC(N)=O)NC(=O)C(N)C(C)C)[C@@H](O)C[C@@H](C)C(=O)N[C@@H](C)C(=O)N[C@H](CCC(=O)O)C(=O)NC(Cc1ccccc1)C(=O)O (some centres undefined)
5810 | CSCC[C@H](NC(=O)OC(C)(C)C)C(=O)N[C@@H](CC(C)C)[C@@H](O)C[C@@H](C)C(=O)N[C@H](C(=O)NCc1ccccc1)C(C)C
61.4 | CC(C)C[C@H](NC(=O)[C@H](CC(N)=O)NC(=O)[C@@H](NC(=O)OC(C)(C)C)C(C)C)[C@@H](O)C[C@@H](C)C(=O)N[C@@H](C)C(=O)NCc1ccccc1
9.4 | CC(C)C[C@H](NC(=O)[C@H](CS(C)(=O)=O)NC(=O)[C@@H](NC(=O)OC(C)(C)C)C(C)C)[C@@H](O)C[C@@H](C)C(=O)N[C@H](C(=O)NCc1ccccc1)C(C)C
22400 | CC(C)C[C@H](NC(=O)[C@H](CC(N)=O)NC(=O)OC(C)(C)C)[C@@H](O)C[C@@H](C)C(=O)N[C@@H](C)C(=O)NCc1ccccc1
5.9 | CC(C)C[C@H](NC(=O)[C@H](CC(N)=O)NC(=O)[C@@H](NC(=O)OC(C)(C)C)C(C)C)[C@@H](O)C[C@@H](C)C(=O)N[C@H](C(=O)NCc1ccccc1)C(C)C
50.1 | CSC[C@H](NC(=O)[C@@H](NC(=O)OC(C)(C)C)C(C)C)C(=O)N[C@@H](CC(C)C)[C@@H](O)C[C@@H](C)C(=O)N[C@H](C(=O)NCc1ccccc1)C(C)C
